Where two headings read alike, the source gives them in different places.
Tests used:
[1] = test system: AFAT (acyl-Coenzyme A: fatty alcohol acyltransferase)
Procedure: (§1) a) The rats or mice are anesthetized with ether, and the PGs are removed and placed in a beaker containing wash buffer (ice cold).
(§2) b) As soon as possible, the PGs are homogenized in a Potter-Elvehjem homogenizer with 15 mL of homogenizing buffer. The homogenizer is kept in a small ice bath. Work the plunger until it reaches the bottom of the tube 10 times.
(§3) k) Add 1 mL of 0.2 M KPO4 buffer pH 7.4 to half of the bottles in an ice bath. Scrape the whole pellet loose with a teflon rod and transfer to a 15 mL homogenizer. Wash bottle with 1 mL of buffer and transfer to one of the bottles that has a pellet but no buffer. Homogenize gently by hand. Aliquot into Cryovials (Nalgene™) and store in liquid nitrogen. The microsomes remain active for at least 2 years.
(§4) m) Determine the protein concentration of the homogenate by the Lowry method. […] Desired protein concentration is 20 mg/mL rat or mouse PG microsomes.
(§5) C. [4-^14C]Cholesteryl or [(1-^14C]Hexadecanol. Evaporate the toluene from the vial. Re-suspend radiolabel in 0.1 mL 2-propanol.
(§6) D. Oleoyl Coenzyme A (1 mM in sucrose buffer). Dissolve 10.3 mg oleoyl coenzyme A (Sigma 0-7002) in 10 mL sucrose buffer. Note: Store at −10° C. Dilute 5-fold to 200 μM with sucrose buffer just prior to assay.
(§7) E. [^14C]Cholesteryl—Labeled Microsomes or [^14C]Hexadecanol—Labeled Microsomes. Dilute a vial of stock microsomes to 4 mg protein per milliliter with sucrose buffer. For every 1 mL of diluted microsome solution, use glass syringe (Hamilton, [sequence], 1702) and transfer 2.5 μL of radiolabel to diluted microsomes by submerging syringe needle in the microsome solution and swirling while ejecting syringe contents. Flush syringe once with microsome solution. Determine dpm in small aliquot of solution by liquid scintillation counting (LSC). Need approximately 4×10^6 dpm/mL in the microsome solution.
(§8) G. Test Compound Solutions. Test compounds are weighed to make either 1 mM or 4 mM stock solutions in dimethylsulfoxide (DMSO). These solutions are used to prepare DMSO solutions containing 40 times the concentration of compound to be tested. These solutions may be prepared 24 hours prior to the assay and stored at room temperature.
(§9) a) Duplicate samples are prepared by adding 5 μL of test compound solution to each of two assay tubes. Controls and blanks receive 5 μL of DMSO. […]
(§10) h) Transfer 40 μL of the acidified solution to the pre-absorbent area of Whatman LK6D silica gel TLC plates, which are then dried on a hot plate for 5 minutes and developed in trimethylpentane/diethyl ether/acetic acid (75:25:2). The bands containing radiolabel are detected and quantitated by phosphorimaging with a Molecular Dynamics phosphorimager.
(§11) TLC will resolve free alcohol from its ester. The relative amount of radioactivity in each of those bands is determined by phosphorimaging. […]

[2] = test system: ACAT (acyl-Coenzyme A: cholesteryl acyltransferase)
Procedure: as §5
D. Oleoyl Coenzyme A (1 mM in sucrose buffer). […] Note: Store at −10° C. Dilute 5-fold to 200 μM with sucrose buffer just prior to assay.
E. [^14C]Cholesteryl—Labeled Microsomes or [^14C]Hexadecanol—Labeled Microsomes. Dilute a vial of stock microsomes to 4 mg protein per milliliter with sucrose buffer. […] Flush syringe once with microsome solution. Determine dpm in small aliquot of solution by liquid scintillation counting (LSC). Need approximately 4×10^6 dpm/mL in the microsome solution.
G. Test Compound Solutions. Test compounds are weighed to make either 1 mM or 4 mM stock solutions in dimethylsulfoxide (DMSO). These solutions are used to prepare DMSO solutions containing 40 times the concentration of compound to be tested. […]
as §10, §11

[3] = target: AFAT (acyl-Coenzyme A: fatty alcohol acyltransferase); assay: Inhibition of wax ester (WE) synthesis in mouse preputial gland microsomes; details: for IC50: read-out: Inhibition of Wax Ester (WE) Synthesis IC50, mouse preputial microsome preparation, [14C]hexadecanol label, oleoyl coenzyme A
Procedure: as §1, §2, §3, §4, §5, §6, §7, §8, §9, §10, §11

Row | SMILES | Inhibition of WE synthesis in mouse preputial gland microsomes (in words) [1] | Inhibition of liver ACAT (in words) ([2]; inhibition curves of FIG. 1, printed as rat liver ACAT) | IC50 ([2]; read-out: Inhibition of Cholesteryl Ester (CE) Synthesis IC50, mouse liver microsome preparation, [14C]cholesteryl label, oleoyl coenzyme A) | IC50 [3] | Inhibition of WE synthesis in mouse preputial gland microsomes (in words) ([3]; inhibition curves of FIG. 1, 0.01 μM to 100 μM)
1 | CC(C)c1cc(C(C)C)c(CC(=O)NS(=O)(=O)Oc2c(C(C)C)cccc2C(C)C)c(C(C)C)c1 [Compound 1, [(2,4,6-triisopropyl-phenyl)-acetyl]-sulfamic acid 2,6-diisopropyl-phenyl ester] | unexpectedly inhibits WE synthesis | potent inhibitors of rat liver ACAT | 0.09 µM | 13.9 µM | 
2 | CCCCCCCCCCC(C)(C)C(=O)Nc1c(OC)cc(OC)cc1OC [Compound 2, 2,2-dimethyl-N-(2,4,6-trimethoxyphenyl)-dodecanamide] |  |  |  | > 100 µM | no inhibition of WE synthesis

From US6730703B2, “Dual inhibitors of cholesteryl ester and wax ester synthesis for sebaceous gland disorders” (Warner-Lambert Company, priority 2000, dated 2004)
